Consider 28 molecules from ChEMBL document CHEMBL3997820, “Synthesis and evaluation of anticonvulsant properties of new N-Mannich bases derived from pyrrolidine-2,5-dione and its 3-methyl-, 3-isopropyl, and 3-benzhydryl analogs” (Bioorg Med Chem Lett, 2017).

Structures are written as SMILES. Activity calls are given as the source filed them. The rule behind the calls is not given here.

Data set [1] concerns Mus musculus. In words: Anticonvulsant activity in ip dosed albino CD1 mouse assessed as protection against subcutaneous pentylenetetrazole-induced seizures. It is filed as functional.
Data set [2] concerns Mus musculus. The experiment in a line: Anticonvulsant activity in albino CD1 mouse assessed as protection against 32 mA current-induced seizure at 100 mg/kg, ip after 0.5 hrs by 6 Hz psychomotor test. The class given is functional.
Data set [3] deals with Mus musculus. The experiment in a line: Anticonvulsant in ip dosed CD1 mouse assessed as time to peak effect. It is filed as functional.
Data set [4] concerns Mus musculus. In words: Protection index, ratio of TD50 for motor impairment in ip dosed albino CD1 mouse to ED50 for protection against subcutaneous pentylenetetrazole-induced seizures in ip dosed albino CD1 mouse.
Data set [5] relates to Mus musculus. The experiment in a line: Anticonvulsant activity in albino CD1 mouse assessed as protection against 32 mA current-induced seizure at 100 mg/kg, ip after 4 hrs by 6 Hz psychomotor test. The class given is functional, organism-based.
Data set [6] has as its system Mus musculus. In words: Anticonvulsant activity in albino CD1 mouse assessed as protection against maximal electroshock-induced seizures at 300 mg/kg, ip measured after 0.5 hrs. It is filed as functional, organism-based.
For data set [7], the system named is Mus musculus. The experiment in a line: Neurotoxicity in albino CD1 mouse assessed as motor impairment at 300 mg/kg, ip measured after 0.5 hrs by rotarod test. As to conditions: in vivo. The class given is toxicity, organism-based.
Data set [8] has as its system Mus musculus. In words: Anticonvulsant activity in ip dosed albino CD1 mouse assessed as minimum dose required to protect subcutaneous pentylenetetrazole-induced seizures in half and more mouse measured after 0.5 hrs. It is filed as functional.
Data set [9] deals with Mus musculus. The experiment in a line: Anticonvulsant activity in ip dosed albino CD1 mouse assessed as minimum dose required to protect subcutaneous pentylenetetrazole-induced seizures in half and more mouse measured after 4 hrs. The class given is functional.
A short description of data set [10]: Neurotoxicity in ip dosed albino CD1 mouse assessed as motor impairment by rotarod test. The class given is toxicity, organism-based. As to conditions: in vivo.
Data set [11] has as its system Mus musculus. The experiment in a line: Neurotoxicity in albino CD1 mouse assessed as motor impairment at 300 mg/kg, ip measured after 4 hrs by rotarod test. The class given is toxicity, organism-based. The following applies: in vivo.
Data set [12] has as its system Mus musculus. In words: Anticonvulsant activity in albino CD1 mouse assessed as protection against maximal electroshock-induced seizures at 300 mg/kg, ip measured after 4 hrs. The class given is functional, organism-based.
Data set [13] relates to Mus musculus. In words: Anticonvulsant activity in albino CD1 mouse assessed as protection against subcutaneous pentylenetetrazole-induced seizures at 300 mg/kg, ip measured after 0.5 hrs. It is filed as functional, organism-based.
Data set [14] deals with Mus musculus. In words: Anticonvulsant activity in albino CD1 mouse assessed as protection against subcutaneous pentylenetetrazole-induced seizures at 300 mg/kg, ip measured after 4 hrs. The class given is functional, organism-based.
Data set [15] concerns Mus musculus. In words: Anticonvulsant activity in ip dosed albino CD1 mouse assessed as protection against 32 mA current-induced seizure by 6 Hz psychomotor test. It is filed as functional.

Consider `CC(C)C1CC(=O)N(CN2CCN(C)CC2)C1=O` (centres undefined), for which the median effective dose (ED50) with Mus musculus [1] stood at 74.9 mg/kg. The outcome in the data set with Mus musculus [2], in the data set on Mus musculus [5], with Mus musculus [6] and with Mus musculus [12] was inactive. For the same molecule, the Time in the data set on Mus musculus [3] was 0.5 h. Moreover, in the data set with Mus musculus [4], the “Ratio TD50/ED50” value was above 4. In addition, the Activity entry was “Non-Toxic” in the data set on Mus musculus [7], 100 mg/kg in the data set on Mus musculus [8], 300 mg/kg in the data set on Mus musculus [9] and “Non-Toxic” in the data set on Mus musculus [11]. Further, the TD50 in [10] is above 300 mg/kg.

For the molecule `O=C1CCC(=O)N1CN1CCC(Cc2ccccc2)CC1`, the outcome in the data set on Mus musculus [13], in the data set on Mus musculus [6], in the data set on Mus musculus [14] and in the data set on Mus musculus [12] was inactive. Also, the Activity result in the data set with Mus musculus [7] and in the data set on Mus musculus [11] was “Non-Toxic” each time.

On to `CC1CC(=O)N(CN2CCOCC2)C1=O` (centres undefined), for which the outcome in the data set on Mus musculus [13], with Mus musculus [6], in the data set with Mus musculus [14] and with Mus musculus [12] was inactive. The Activity result in the data set with Mus musculus [7] and with Mus musculus [11] was “Non-Toxic” throughout.

Turning to `O=C1CCC(=O)N1CN1CCN(CCO)CC1`, the result in the data set with Mus musculus [13], with Mus musculus [6], in the data set with Mus musculus [14] and with Mus musculus [12] was inactive. Moreover, the Activity entry in the data set with Mus musculus [7] and in the data set on Mus musculus [11] was “Non-Toxic” throughout.

`CC(C)C1CC(=O)N(CN2CCN(c3ncccn3)CC2)C1=O` (centres undefined): the result with Mus musculus [13], in the data set on Mus musculus [6], in the data set on Mus musculus [14] and with Mus musculus [12] was inactive. Further, the Activity result in the data set with Mus musculus [7] and with Mus musculus [11] was “Non-Toxic” in each case.

For `O=C1CCC(=O)N1CN1CCOCC1`, the outcome in the data set on Mus musculus [13], in the data set with Mus musculus [6], with Mus musculus [14] and with Mus musculus [12] was inactive. In addition, the Activity result with Mus musculus [7] and with Mus musculus [11] was “Non-Toxic” in each case.

For the molecule `O=C1CC(C(c2ccccc2)c2ccccc2)C(=O)N1CN1CCN(C2CCCCC2)CC1` (centres undefined), the result in the data set on Mus musculus [6] and with Mus musculus [12] was inactive. The Activity result was “Non-Toxic” in the data set with Mus musculus [7], 300 mg/kg in the data set with Mus musculus [8], 300 mg/kg in the data set with Mus musculus [9] and “Non-Toxic” with Mus musculus [11].

On to `O=C1CCC(=O)N1CN1CCN(c2ncccn2)CC1`, for which the result in the data set with Mus musculus [13], with Mus musculus [6], in the data set on Mus musculus [14] and in the data set on Mus musculus [12] was inactive. Further, the Activity entry with Mus musculus [7] and with Mus musculus [11] was “Non-Toxic” throughout.

With `COC[C@@H](NC(C)=O)C(=O)NCc1ccccc1` [LACOSAMIDE], the Time in the data set with Mus musculus [3] stood at 0.5 h. The median effective dose (ED50) in the data set on Mus musculus [15] was determined as 5.2 mg/kg.

As to `CC1CC(=O)N(CN2CCC(Cc3ccccc3)CC2)C1=O` (centres undefined), the result in the data set on Mus musculus [13], in the data set with Mus musculus [6], in the data set with Mus musculus [14] and in the data set with Mus musculus [12] was inactive. The Activity result in the data set on Mus musculus [7] and in the data set with Mus musculus [11] was “Non-Toxic” throughout.

Turning to `CC(C)C1CC(=O)N(CN2CCN(Cc3ccccc3)CC2)C1=O` (centres undefined), the outcome in the data set on Mus musculus [13], in the data set with Mus musculus [6], in the data set with Mus musculus [14] and with Mus musculus [12] was inactive. Also, the Activity result with Mus musculus [7] and with Mus musculus [11] was “Non-Toxic” in each case.

On to `O=C1CCC(=O)N1CN1CCN(C2CCCCC2)CC1`, for which the outcome with Mus musculus [13], in the data set on Mus musculus [6], with Mus musculus [14] and with Mus musculus [12] was inactive. The Activity result in the data set with Mus musculus [7] and with Mus musculus [11] was “Non-Toxic” in each case.

On to `CC[C@@H](C(N)=O)N1CCCC1=O`, for which the Time with Mus musculus [3] stood at 1 h. In addition, the TD50 in data set [10] is above 500 mg/kg.

Regarding `O=C1CC(C(c2ccccc2)c2ccccc2)C(=O)N1CN1CCN(Cc2ccccc2)CC1` (centres undefined), the result in the data set with Mus musculus [6] and in the data set with Mus musculus [12] was inactive. The Activity entry with Mus musculus [7] was “Non-Toxic”; with Mus musculus [8], 100 mg/kg; in the data set with Mus musculus [9], 300 mg/kg; with Mus musculus [11] it was “Non-Toxic”.

For the molecule `O=C1CC(C(c2ccccc2)c2ccccc2)C(=O)N1CN1CCN(c2ncccn2)CC1` (centres undefined), the outcome in the data set with Mus musculus [6], with Mus musculus [14] and in the data set with Mus musculus [12] was inactive. The Activity result in the data set on Mus musculus [7] was “Non-Toxic”; in the data set with Mus musculus [8] it was 300 mg/kg; with Mus musculus [11] it was “Non-Toxic”.

For `CN1CCN(CN2C(=O)CCC2=O)CC1`, the result in the data set on Mus musculus [13], in the data set on Mus musculus [6], with Mus musculus [14] and with Mus musculus [12] was inactive. The Activity entry in the data set on Mus musculus [7] and in the data set on Mus musculus [11] was “Non-Toxic” in each case.

In the case of `CC1CC(=O)N(CN2CCN(C)CC2)C1=O` (centres undefined), the result in the data set on Mus musculus [13], in the data set with Mus musculus [6], in the data set on Mus musculus [14] and in the data set on Mus musculus [12] was inactive. Further, the Activity result in the data set with Mus musculus [7] and in the data set with Mus musculus [11] was “Non-Toxic” in each case.

Regarding `CC(C)C1CC(=O)N(CN2CCN(C3CCCCC3)CC2)C1=O` (centres undefined), in the data set on Mus musculus [1], the median effective dose (ED50) is 91.8 mg/kg. Moreover, in the data set with Mus musculus [3], the Time was 0.5 h. Moreover, in the data set on Mus musculus [4], the “Ratio TD50/ED50” value was below 2.17. Moreover, the outcome with Mus musculus [13], in the data set with Mus musculus [6] and in the data set on Mus musculus [12] was inactive. The Activity entry was “Non-Toxic” in the data set with Mus musculus [7], 100 mg/kg in the data set on Mus musculus [9] and “Non-Toxic” in the data set with Mus musculus [11]. Further, the TD50 in [10] is below 200 mg/kg.

Consider `CC1CC(=O)N(CN2CCN(CCO)CC2)C1=O` (centres undefined), for which the outcome in the data set on Mus musculus [13], in the data set with Mus musculus [6], in the data set with Mus musculus [14] and in the data set on Mus musculus [12] was inactive. For the same molecule, the Activity entry in the data set on Mus musculus [7] and in the data set on Mus musculus [11] was “Non-Toxic” each time.

For the molecule `CC1CC(=O)N(CN2CCN(C3CCCCC3)CC2)C1=O` (centres undefined), the result in the data set with Mus musculus [13], in the data set with Mus musculus [6], in the data set with Mus musculus [14] and in the data set on Mus musculus [12] was inactive. Besides, the Activity entry in the data set on Mus musculus [7] and with Mus musculus [11] was “Non-Toxic” in each case.

`CC1CC(=O)N(CN2CCN(c3ncccn3)CC2)C1=O` (centres undefined): the outcome in the data set on Mus musculus [13], in the data set on Mus musculus [6], with Mus musculus [14] and in the data set with Mus musculus [12] was inactive. Also, the Activity entry with Mus musculus [7] and in the data set with Mus musculus [11] was “Non-Toxic” in each case.

On to `CC(C)C1CC(=O)N(CN2CCC(Cc3ccccc3)CC2)C1=O` (centres undefined), for which the outcome in the data set on Mus musculus [13], with Mus musculus [6], with Mus musculus [14] and in the data set on Mus musculus [12] was inactive. For the same molecule, the Activity result with Mus musculus [7] and in the data set with Mus musculus [11] was “Non-Toxic” in each case.

With `CC1CC(=O)N(CN2CCN(Cc3ccccc3)CC2)C1=O` (centres undefined), the result in the data set on Mus musculus [13], in the data set with Mus musculus [6], in the data set with Mus musculus [14] and with Mus musculus [12] was inactive. For the same molecule, the Activity entry in the data set with Mus musculus [7] and in the data set with Mus musculus [11] was “Non-Toxic” each time.

As to `CCCC(CCC)C(=O)O` [VALPROIC ACID], the median effective dose (ED50) stood at 240 mg/kg in the data set with Mus musculus [1] and 131 mg/kg in the data set on Mus musculus [15]. Besides, in the data set with Mus musculus [3], the Time amounted to 0.5 h.

Take `O=C1CCC(=O)N1CN1CCN(Cc2ccccc2)CC1`: the result in the data set with Mus musculus [13], with Mus musculus [6], in the data set on Mus musculus [14] and in the data set with Mus musculus [12] was inactive. For the same molecule, the Activity entry in the data set on Mus musculus [7] and in the data set with Mus musculus [11] was “Non-Toxic” throughout.

With `CCC1(C)CC(=O)NC1=O` (centres undefined) [ETHOSUXIMIDE], the Time in the data set with Mus musculus [3] turned out to be 0.25 h.

With `O=C1CC(C(c2ccccc2)c2ccccc2)C(=O)N1CN1CCC(Cc2ccccc2)CC1` (centres undefined), the outcome with Mus musculus [13], in the data set on Mus musculus [6], in the data set on Mus musculus [14] and in the data set on Mus musculus [12] was inactive. Moreover, the Activity entry with Mus musculus [7] and in the data set on Mus musculus [11] was “Non-Toxic” each time.

Turning to `CC(C)C1CC(=O)N(CN2CCOCC2)C1=O` (centres undefined), the result in the data set on Mus musculus [2], in the data set with Mus musculus [13], with Mus musculus [5], in the data set with Mus musculus [6] and in the data set with Mus musculus [12] was inactive. Moreover, the figures for the Activity entry in the data set with Mus musculus [7], with Mus musculus [9] and with Mus musculus [11] were “Non-Toxic”, 300 mg/kg and “Non-Toxic”, respectively.
